According to PMC6688371, “Effect of the inhaled PDE4 inhibitor CHF6001 on biomarkers of inflammation in COPD” (Respiratory Research, 2019):
Read-outs that look alike come from different tables or passages of the source.

Tests used:
[1] = Sputum concentration of CHF6001; type: in vivo, human; settings: for concentration at 2 h: sputum, mean of all values measured on Days 20, 26 and 32, geometric mean (%CV), read-out: Sputum concentration at 2 h post-dose
Description: The mean changes from baseline to Day 32 for lung function, CAT and TDI were analysed using similar methodology to sputum biomarkers, but were not log-transformed. […] The sputum concentration of CHF6001 was also evaluated at 2 h post-dose, using the mean of all values measured on Days 20, 26 and 32. Pharmacokinetic variables were summarised using geometric means and coefficients of variation, except for Tmax,ss, which is presented as median (range). […]
Only one of the sputum samples induced at 2 h post-dose on Days 20, 26 or 32 was used to evaluate CHF6001 concentration, with the evaluation performed only if a minimum of 300 mg of residual sputum remained. Approximately 30 mg of sputum plug was transferred to a polypropylene cryotube, and was shipped in an upright position at –80C to a central laboratory for analysis. The concentration of CHF6001 was evaluated using a LC-MS/MS method following solid phase extraction. Validation procedures were the same as those listed above for biomarkers. […]
over the calibration range of 30 to 20,000 ng/mL. The precision and accuracy of the method […]
30 ng/mL and within 15% at all other concentrations. No significant matrix effects were […]
temperature (nominally +22C), after storage for 93 days in a freezer set at –80C and after four freeze-thaw cycles at nominally –80C / +22C. The method was considered to be suitable for measuring concentrations of CHF6001 in human sputum samples from […]

patients with COPD = assay: Safety and tolerability (adverse events, vital signs, ECG, laboratory data)
Description: The Safety population is all randomised patients who received at least one dose of study medication.

CS(=O)(=O)Nc1ccc(C(=O)O[C@@H](Cc2c(Cl)c[n+]([O-])cc2Cl)c2ccc(OC(F)F)c(OCC3CC3)c2)cc1OCC1CC1 [CHF6001]
Sputum concentration in relation to dose ([1]; 2 h post-dose, steady state (after Day 20), 800 vs 1600 μg BID): dose-proportionality was observed
Kp at 2 h ([1]; both sexes, human, sputum relative to plasma, inhaled, 2 h post-dose, steady state): ~2000
concentration at 2 h ([1]; both sexes, human, 800 μg BID inhaled): 4900 ng/mL
concentration at 2 h ([1]; both sexes, human, 1600 μg BID inhaled): 10200 ng/mL
Adverse events (patients with COPD; 800 μg BID (N = 58)): 30 (51.7) patients (%)
Adverse events leading to study drug withdrawal (patients with COPD; 800 μg BID (N = 58)): 3 (5.2) patients (%)
Adverse events with a fatal outcome (patients with COPD; 800 μg BID (N = 58)): 0 patients (%)
Back pain (patients with COPD; 800 μg BID (N = 58)): 4 (6.9) patients (%)
Cough (patients with COPD; 800 μg BID (N = 58)): 1 (1.7) patients (%)
Diarrhoea (patients with COPD; 800 μg BID (N = 58)): 3 (5.2) patients (%)
Drug-related adverse events (patients with COPD; 800 μg BID (N = 58)): 1 (1.7) patients (%)
Drug-related adverse events: Dry mouth (patients with COPD; 800 μg BID (N = 58)): 0 patients (%)
Drug-related adverse events: Sleep disorders (patients with COPD; 800 μg BID (N = 58)): 1 (1.7) patients (%)
Drug-related serious adverse events (patients with COPD; 800 μg BID (N = 58)): 0 patients (%)
Fatigue (patients with COPD; 800 μg BID (N = 58)): 1 (1.7) patients (%)
Headache (patients with COPD; 800 μg BID (N = 58)): 1 (1.7) patients (%)
Nasopharyngitis (patients with COPD; 800 μg BID (N = 58)): 5 (8.6) patients (%)
Oropharyngeal pain (patients with COPD; 800 μg BID (N = 58)): 3 (5.2) patients (%)
Serious adverse events (patients with COPD; 800 μg BID (N = 58)): 2 (3.4) patients (%)
Severe adverse events (patients with COPD; 800 μg BID (N = 58)): 0 patients (%)
Tension headache (patients with COPD; 800 μg BID (N = 58)): 1 (1.7) patients (%)
Toothache (patients with COPD; 800 μg BID (N = 58)): 3 (5.2) patients (%)
Patients reporting gastrointestinal adverse events (patients with COPD; 800 μg BID, seven patients): 12.1%
Adverse events (patients with COPD; 1600 μg BID (N = 59)): 33 (55.9) patients (%)
Adverse events leading to study drug withdrawal (patients with COPD; 1600 μg BID (N = 59)): 2 (3.4) patients (%)
Adverse events with a fatal outcome (patients with COPD; 1600 μg BID (N = 59)): 0 patients (%)
Back pain (patients with COPD; 1600 μg BID (N = 59)): 1 (1.7) patients (%)
Cough (patients with COPD; 1600 μg BID (N = 59)): 3 (5.1) patients (%)
Diarrhoea (patients with COPD; 1600 μg BID (N = 59)): 1 (1.7) patients (%)
Drug-related adverse events (patients with COPD; 1600 μg BID (N = 59)): 1 (1.7) patients (%)
Drug-related adverse events: Dry mouth (patients with COPD; 1600 μg BID (N = 59)): 1 (1.7) patients (%)
Drug-related adverse events: Sleep disorders (patients with COPD; 1600 μg BID (N = 59)): 0 patients (%)
Drug-related serious adverse events (patients with COPD; 1600 μg BID (N = 59)): 0 patients (%)
Fatigue (patients with COPD; 1600 μg BID (N = 59)): 3 (5.1) patients (%)
Headache (patients with COPD; 1600 μg BID (N = 59)): 7 (11.9) patients (%)
Nasopharyngitis (patients with COPD; 1600 μg BID (N = 59)): 6 (10.2) patients (%)
Oropharyngeal pain (patients with COPD; 1600 μg BID (N = 59)): 2 (3.4) patients (%)
Serious adverse events (patients with COPD; 1600 μg BID (N = 59)): 2 (3.4) patients (%)
Severe adverse events (patients with COPD; 1600 μg BID (N = 59)): 1 (1.7) patients (%)
Tension headache (patients with COPD; 1600 μg BID (N = 59)): 3 (5.1) patients (%)
Toothache (patients with COPD; 1600 μg BID (N = 59)): 1 (1.7) patients (%)
Patients reporting gastrointestinal adverse events (patients with COPD; 1600 μg BID, six patients): 10.2%
Haematology or biochemistry data, between treatments (patients with COPD; 800 or 1600 μg BID and placebo): no major differences
Systolic or diastolic blood pressure, heart rate or Fridericia's corrected QT interval vs placebo (patients with COPD; either dose (800 or 1600 μg BID)): no differences
